Assay results reported in patent US7557144B1, “Modulation of protein expression using carbocyclic aryl alkenoic acid derivatives” (The Johns Hopkins University, priority 2000, dated 2009).

Assays:
Type in all cases: cell-based, human
[1] = test system: Hsc70; test: Hsc70 immunoblot in primary CF bronchial epithelial cells
Procedure: Shown in FIG. 11 is an experiment in which cells were exposed to control or test conditions or study drug for 48 hrs and then analyzed by immunoblotting for Hsc70, a 70 kD heat shock chaperone protein. […] Hsc70 is not as dramatically down regulated by growth at 27° C.
Shown in FIG. 12 is an experiment performed along lines as shown in FIG. 10A in the same primary cell line. Hsc70 under control conditions is strongly visible in lane 6. Study drug at 1 μM or higher, and low temperature, are associated with more than 50% reduction in Hsc70.

[2] = test system: ΔF508-CFTR; test: CFTR immunoprecipitation and phosphorylation in IB3-1 cells (bands B and C)
Procedure: CFTR was immunoprecipitated and phosphorylated as described in the Methods. […] Band B CFTR is barely visible consistent with low level ΔF508 expression. The positive control condition, untreated cells grown at 28° C., is in lane 7. Band C has been induced and Band B is relatively depleted consistent with an effect of low temperature on protein trafficking. […] This is consistent with an effect on protein production and on protein trafficking.
Shown in FIGS. 9A and 9B are independent experiments performed as described above. Now the control cells are analyzed in lane 5. Lanes 1-4 show decreasing concentrations of the test compound.
CFTR was detected by immunoprecipitation and phosphorylation. Control cells at 0 and 32 hrs have barely visible CFTR bands B and C. Exposure to low temperature induces band C. 1 mM 4-phenyl-Δ3-transbutenoic acid begins to induce band C and 4 hr and appears maximal by 16 hrs.

[3] = test system: ΔF508-CFTR; test: CFTR bands B and C in primary cystic fibrosis bronchial epithelial cells; settings: primary CF bronchial epithelial cells, 48 hr
Procedure: Shown in FIGS. 10A and 10B are results of CF bronchial epithelial cells were harvested from the discarded lungs of a CF patient who underwent therapeutic lung transplant. The genotype is homozygous ΔF508. The methods are as described above. Control cells grown in standard conditions for 0 or 48 hrs are in lanes 6 and 7. Bands B and C are barely detectable. […] The test compound in doses from 1 μM to 1 mM for 48 hr is shown in decreasing order in lanes 2-5.

[4] = test system: Hsp40; test: Hsp40 immunoblot of IB3-1 lysates; settings: IB3-1 cells, 37° C., 2 days; butyrate 1 mM, glycerol 1 M, phenylacetate 1 mM, G418 0.2 mg/ml
Procedure: (§1) 3. Immunoblot analysis. Whole cell lysates were prepared by solubilization with 2% SDS at 95° C. Protein concentration in the lysates was determined using the Bio-Rad DC assay reagents with bovine plasma g-globulin as a standard (Bio-Rad Laboratories, Hercules, Calif.). Equal amounts of protein was resolved on 5, 7, 8, or 9% SDS-polyacrylamide gels. Proteins were transferred to nitrocellulose, and immunodetection was performed as previously described (25). Nonspecific binding was blocked by incubation of the nitrocellulose with 2% gelatin or 10% nonfat day milk. Primary antisera and secondary antibodies were applied in buffer containing 0.4% BSA overnight at 4° C. and for 1 h at room temperature, respectively. Detection of immunoreactivity was performed with the enhanced chemiluminescence reagent (ECL, Amer-sham) and fluorography. Recombinant bovine Hsc70 ([…]) was purchased from Stressgen Biotechnologies for use in constructing a standard curve of Hsc70 immunoreactivity. Immunoblots containing the bovine Hsc70 were probed with the Hsc70-specific polyclonal antiserum.
(§2) Whether 4-PBA would regulate expression of a number of other molecular chaperones in IB3-1 cells (FIG. 2) was assessed next. […] Hsp90 is required for correct folding and function of a number of cellular proteins (16). […] Hsp70 (Hsp72) expression is induced by heat shock and the presence of denatured proteins within the eukaryotic cell (16). In Escherichia coli, the Hsp70 homologue DnaK and the Hsp40 homologue DnaJ act to promote protein folding (16). Hdj2 is the member of the Hsp40 family that specifically interacts with and regulates the ATPase activity of Hsc70. Hdj2 also interacts with CFTR during CFTR translation (26).
(§3) FIGS. 2A-2E are more specifically explained as follows. […]
(§4) FIGS. 5A-C are explained in more detail as follows. […] Cellular homogenates were prepared in 2% SDS as described in METHODS, and 5 μg of total cellular protein were analyzed by immunoblot for Hsc70 using rabbit polyclonal antiserum, Hsp90, Hsp70, Hsp40 as described above under General Comments. […]

[5] = test system: Hsp90; test: Hsp90 immunoblot of IB3-1 lysates; settings: IB3-1 cells, 37° C., 2 days; butyrate 1 mM, glycerol 1 M, phenylacetate 1 mM, G418 0.2 mg/ml
Procedure: as §1, §2, §3, §4

[6] = test system: ΔF508-CFTR/Hsc70 complex; test: Immunoprecipitation of Hsc70 and coimmunoprecipitation of CFTR from treated IB3-1 cells; settings: 2 days, butyrate 1 mM, glycerol 1 M, phenylacetate 1 mM, G418 0.2 mg/ml
[7] = test system: Hsp70; test: Hsp70 immunoblot of IB3-1 lysates; settings: IB3-1 cells, 37° C., 2 days; butyrate 1 mM, glycerol 1 M, phenylacetate 1 mM, G418 0.2 mg/ml
Procedure: as §1, §2
FIGS. 2A-2E are more specifically explained as follows. […] IB3-1 cells were treated as described for FIG. 1. Immunoblotting with 5 μg of IB3-1 SDS lysate protein was performed as described in the foregoing General Comments.
FIGS. 5A-C are explained in more detail as follows. […] A: IB3-1 cells were incubated at 37° C. for 2 days under indicated conditions. Cellular homogenates were prepared in 2% SDS as described in METHODS, and 5 μg of total cellular protein were analyzed by immunoblot for Hsc70 using rabbit polyclonal antiserum, Hsp90, Hsp70, Hsp40 as described above under General Comments. Con, control. B and C: densitometric analysis of Hsc70 expression (B) and Hsp90, Hsp70, and Hsp40 expression (C) was performed as described for FIG. 1. B: means 6 SE of density in 4 independent experiments.

[8] = test system: Hsc70; test: Hsc70 immunoblot of IB3-1 whole cell lysates; settings: IB3-1 cells, 37° C., 2 days; butyrate 1 mM, glycerol 1 M, phenylacetate 1 mM, G418 0.2 mg/ml
Procedure: as §1

[9] = test system: Hsc70 mRNA; test: RNase protection assay of Hsc70 mRNA in IB3-1 cells; settings: 2 days, 1 mM butyrate, 1 M glycerol
Text: 4. RNase protection. An Hsc70-specific probe for RNase protec-tion was constructed by isolation a 500-bp EcoR I fragment from American Type Culture Collection (ATCC) plasmid 77659 (ATCC, Manassas, Va.) and ligating this fragment into the EcoR I site of pSK(2) (Bluescript, Stratagene, La Jolla, Calif.). The resulting plasmid was sequenced in the Genetics Core Facility at the Johns Hopkins Hospital and found to be identical to sequences in exons 8 and 9 of the human Hsc70 sequence, with sequencing using the T3 primer and T7 primer leading to sense and antisense sequence, respectively. Hybridization probes were synthesized using a Maxiscript T7 kit (Ambion, Austin, Tex.) and [α^32 P]UTP (Amersham or DuPont NEN, Boston, Mass.) according to the Maxiscript protocol. Templates for internal control hybridizations, pTRI-18S and pTRI-cyclophilin A, were purchased from Ambion, and probes were similarly synthesized using the Maxiscript T7 kit. Probes were isolated by acid phenol-chloroform (Ambion) extraction, separated from unincorporated nucleotide by gel filtration (Sephadex G25 RNAspin column, Boehringer-Mannheim), and ethanol-acetate precipitated before resuspension in hybridization buffer. The concentration of radioactivity in the synthesized probes was determined by liquid scintillation.
RNase protection experiments were performed using the Direct Protect RNase protection assay kit (Ambion) according to the manufacturer's protocol. IB3-1 cell lysates were pre-pared in Direct Protect lysis buffer according to the manufacturer's protocol after incubation under the appropriate conditions for 48 h. Probe (50-70 and 5-10 thousands of counts/min for Hsc70 and control, respectively) and cellular RNA were hybridized overnight at 37° C. and digested with RNase cocktail. Protected fragments were resolved by electrophoresis on 5% acrylamide-8 M urea gels and detected by fluorography. Hsc70 mRNA concentration is expressed relative to control (18S or cyclophilin A) hybridization by densitometry (see Densitometric analysis). Results for hybridization of Hsc70 mRNA relative to the two control species were similar and were therefore grouped for data analysis.
FIGS. 3A-B are explained in more detailed as follows. Dose-dependent downregulation of Hsc70 mRNA expression by 4-PBA. A: IB3-1 cells were treated as for FIGS. 1 and 2. Hsc70 mRNA and 18S rRNA (as an internal reference) were measured by Direct Protect RNase protection as described under General Comments. […] P values (shown above respective error bars) were determined by 1-way ANOVA in comparison with control.
FIG. 6 is explained in more detail as follows. […] P values (shown above respective error bars) were determined by 1-way ANOVA in comparison with control.

[10] = IB3-1 cells, 1 μM to 100 μM, 48 hr (FIG. 8)

Structure (SMILES)	Hsp40 immunoreactivity [4]	Hsp90 immunoreactivity [5]	amount of immunoreactive CFTR coprecipitated with Hsc70 [6]	Hsp70 immunoreactivity [7]	Hsc70 immunoreactivity [8]	reduction in steady-state Hsc70 mRNA levels [9]	further results
O=C(O)CC=Cc1ccccc1 [4-phenyl-Δ3-transbutenoic acid]							reduction in Hsc70 ([1]; 1 μM or higher (FIG. 12)): more than 50%; reduction in Hsc70 ([1]; 100 μM and 1 mM, 48 hrs, semi-quantitative blot (FIG. 11)): ≥ 50%; Band B and total CFTR [2, 10]: induction; induction of Band C CFTR [2, 10]: dose-dependent induction of Band C; time at which induction of band C begins ([2]; IB3-1 cells, 1 mM): 4 h; time by which induction of band C appears maximal ([2]; IB3-1 cells, 1 mM): ≤ 16 h; induction of CFTR bands B and C ([2]; IB3-1 cells, independent experiments (FIGS. 9A and 9B)): dose-dependent induction of bands B and C; effectiveness compared with 4-PBA ([2]; data of Examples 4-12): much more effective at lower concentrations; concentration giving maximum induction of bands B and C ([3]; doses 1 μM to 1 mM): 1 mM; induction of CFTR bands B and C ([3]; homozygous ΔF508, 1 μM): dramatic induction of bands B and C
O=C(O)Cc1ccccc1 [Phenylacetate, phenylacetic acid]	not affected	little effect	little effect	not affected	little effect		
CCCC(=O)O [butyrate, butyric acid]						~50%	
OCC(O)CO [glycerol]	not change	not change	decreases	not change	reduction	~50%	
